According to ChEMBL document CHEMBL1201862, “PubChem BioAssay data set” (2004):
Active and inactive are the calls of the source.

Legend:
[1] = target: T1, Carboxy-terminal domain RNA polymerase II polypeptide A small phosphatase 1 (Homo sapiens, UniProt Q9GZU7); test: CTDSP1 inhibitors, concentration-response, biochemical, absorbance readout, ultra-high-throughput screen actives (AID 540297); format: functional
T1 sequence (Q9GZU7 whole entry): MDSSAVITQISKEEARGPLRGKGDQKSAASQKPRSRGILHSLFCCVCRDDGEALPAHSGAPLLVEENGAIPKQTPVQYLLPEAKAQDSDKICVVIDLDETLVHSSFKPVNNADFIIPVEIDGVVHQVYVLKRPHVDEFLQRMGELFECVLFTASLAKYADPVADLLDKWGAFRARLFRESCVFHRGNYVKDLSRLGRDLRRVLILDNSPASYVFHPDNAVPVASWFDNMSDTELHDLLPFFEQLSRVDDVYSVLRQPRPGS

[2] = target: T2, Aminopeptidase N (Plasmodium falciparum FcB1/Columbia, UniProt O96935); test: malaria alanyl aminopeptidase activity blockers – biochemical, fluorogenic H-Leu-NHMec substrate, 1536-well (AID 1445); design: species or system Plasmodium falciparum 3D7, 3D7
T2 sequence (O96935 whole entry): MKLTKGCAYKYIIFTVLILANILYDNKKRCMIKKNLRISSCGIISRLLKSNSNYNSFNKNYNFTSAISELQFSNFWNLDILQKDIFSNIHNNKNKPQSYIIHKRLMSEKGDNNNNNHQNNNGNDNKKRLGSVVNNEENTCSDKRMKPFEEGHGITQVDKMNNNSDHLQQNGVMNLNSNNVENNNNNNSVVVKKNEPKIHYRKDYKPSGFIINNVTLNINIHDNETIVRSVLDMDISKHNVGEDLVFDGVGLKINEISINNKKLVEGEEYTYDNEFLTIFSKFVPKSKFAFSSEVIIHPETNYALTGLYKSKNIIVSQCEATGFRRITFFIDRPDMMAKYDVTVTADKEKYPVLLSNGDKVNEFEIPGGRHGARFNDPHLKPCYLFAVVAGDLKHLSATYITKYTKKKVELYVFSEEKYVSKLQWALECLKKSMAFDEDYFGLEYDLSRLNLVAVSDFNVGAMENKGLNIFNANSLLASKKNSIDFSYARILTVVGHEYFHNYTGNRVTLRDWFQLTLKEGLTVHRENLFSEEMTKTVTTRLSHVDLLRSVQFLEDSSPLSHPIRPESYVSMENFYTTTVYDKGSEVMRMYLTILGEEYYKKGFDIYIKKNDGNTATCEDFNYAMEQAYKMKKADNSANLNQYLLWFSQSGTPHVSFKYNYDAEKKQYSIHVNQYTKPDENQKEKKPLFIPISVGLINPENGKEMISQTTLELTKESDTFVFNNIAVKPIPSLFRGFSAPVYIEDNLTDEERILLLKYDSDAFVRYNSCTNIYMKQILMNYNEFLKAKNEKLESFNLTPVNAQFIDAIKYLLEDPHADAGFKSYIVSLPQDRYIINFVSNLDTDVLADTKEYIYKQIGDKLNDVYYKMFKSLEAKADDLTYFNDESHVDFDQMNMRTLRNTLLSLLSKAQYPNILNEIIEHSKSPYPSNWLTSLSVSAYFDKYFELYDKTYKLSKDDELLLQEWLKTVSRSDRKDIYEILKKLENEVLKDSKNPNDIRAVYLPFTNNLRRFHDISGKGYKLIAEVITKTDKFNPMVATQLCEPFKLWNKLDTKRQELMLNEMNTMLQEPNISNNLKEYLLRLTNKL

[3] = target: T3, Protein RecA (Mycobacterium tuberculosis, UniProt P9WHJ3); test: Fluorescence Cell-Free Homogeneous Dose Retest to Identify Inhibitors of RecA-Intein Splicing Activity. [Related pubchem assays (depositor defined):AID2097, AID2223, AID489010, AID492950]; format: functional
T3 sequence (P9WHJ3 whole entry): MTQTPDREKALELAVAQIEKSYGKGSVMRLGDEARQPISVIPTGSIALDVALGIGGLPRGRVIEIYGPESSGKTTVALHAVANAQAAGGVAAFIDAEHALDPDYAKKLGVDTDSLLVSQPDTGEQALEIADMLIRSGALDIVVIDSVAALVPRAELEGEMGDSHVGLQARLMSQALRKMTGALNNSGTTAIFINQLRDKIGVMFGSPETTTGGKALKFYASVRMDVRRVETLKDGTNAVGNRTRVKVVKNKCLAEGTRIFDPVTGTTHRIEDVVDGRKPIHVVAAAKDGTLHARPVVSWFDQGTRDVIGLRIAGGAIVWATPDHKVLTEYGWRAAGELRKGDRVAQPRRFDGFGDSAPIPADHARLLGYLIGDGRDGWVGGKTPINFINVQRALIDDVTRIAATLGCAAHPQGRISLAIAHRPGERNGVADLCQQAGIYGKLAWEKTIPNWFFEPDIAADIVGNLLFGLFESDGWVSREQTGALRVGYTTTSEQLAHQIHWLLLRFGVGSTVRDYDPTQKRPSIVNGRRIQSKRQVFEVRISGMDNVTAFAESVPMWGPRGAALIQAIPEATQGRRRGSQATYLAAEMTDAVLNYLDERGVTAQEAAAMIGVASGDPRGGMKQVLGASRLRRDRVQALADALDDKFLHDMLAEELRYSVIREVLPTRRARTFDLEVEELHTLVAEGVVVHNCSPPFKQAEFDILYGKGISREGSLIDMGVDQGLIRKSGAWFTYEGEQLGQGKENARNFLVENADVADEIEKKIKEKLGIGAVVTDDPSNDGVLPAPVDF

[4] = DRD fibroblast viability loss – cell-based, non-viral oncogenic, luminescence, dose response (AID 1934); format: functional; conditions: Homo sapiens
[5] = system: BJ; test: BJ-TERT fibroblast viability loss – cell-based, RAS-independent, luminescence, dose response (AID 1933); format: functional; conditions: Homo sapiens
[6] = system: BJ; test: cells; format: functional, cell-based; conditions: Homo sapiens
[7] = system: BJ; test: BJ-TERT-LT-ST fibroblast viability loss – cell-based, RAS-independent, luminescence, dose response (AID 1935); format: functional; conditions: Homo sapiens;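 further: BJ fibroblasts immortalized with TERT plus LT and ST oncogenes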
[8] = target: T4, Replicative DNA helicase DnaB (Mycobacterium tuberculosis, UniProt P9WMR3); test: DnaB intein splicing inhibitors, dose response, biochemical, cell-free fluorescence (AID 449749); format: functional
T4 sequence (P9WMR3 whole entry): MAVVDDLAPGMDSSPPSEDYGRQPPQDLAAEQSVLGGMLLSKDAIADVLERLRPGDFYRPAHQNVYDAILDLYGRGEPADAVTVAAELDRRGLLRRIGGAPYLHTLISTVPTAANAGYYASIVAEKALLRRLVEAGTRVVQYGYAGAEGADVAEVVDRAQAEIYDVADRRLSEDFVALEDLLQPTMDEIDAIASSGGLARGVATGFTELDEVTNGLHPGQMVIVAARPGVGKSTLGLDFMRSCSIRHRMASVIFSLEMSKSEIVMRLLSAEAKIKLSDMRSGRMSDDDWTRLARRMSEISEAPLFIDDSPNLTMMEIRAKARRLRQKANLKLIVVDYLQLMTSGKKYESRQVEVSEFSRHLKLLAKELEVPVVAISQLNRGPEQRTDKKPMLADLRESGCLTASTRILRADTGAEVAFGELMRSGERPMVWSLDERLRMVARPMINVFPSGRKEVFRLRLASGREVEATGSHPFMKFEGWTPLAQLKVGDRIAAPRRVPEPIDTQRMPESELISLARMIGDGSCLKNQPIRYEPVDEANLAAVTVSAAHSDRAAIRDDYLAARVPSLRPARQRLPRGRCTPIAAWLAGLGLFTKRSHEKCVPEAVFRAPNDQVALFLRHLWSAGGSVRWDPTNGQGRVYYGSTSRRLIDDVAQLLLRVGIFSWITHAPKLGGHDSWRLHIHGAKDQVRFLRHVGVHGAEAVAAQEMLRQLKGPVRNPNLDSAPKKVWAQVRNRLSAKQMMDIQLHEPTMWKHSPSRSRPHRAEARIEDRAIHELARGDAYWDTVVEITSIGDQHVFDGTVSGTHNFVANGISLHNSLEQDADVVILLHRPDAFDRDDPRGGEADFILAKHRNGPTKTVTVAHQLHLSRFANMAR

[9] = target: Glyceraldehyde-3-phosphate dehydrogenase (Homo sapiens, UniProt P04406)
[10] = target: T5, Short transient receptor potential channel 4 (Mus musculus, UniProt Q9QUQ5); test: calcium entry via TRPC4 opening agents – cell-based, HEK293 TRPC4/mu-opioid, Fluo-4 calcium, dose response (AID 434937); format: functional
T5 sequence (Q9QUQ5 whole entry): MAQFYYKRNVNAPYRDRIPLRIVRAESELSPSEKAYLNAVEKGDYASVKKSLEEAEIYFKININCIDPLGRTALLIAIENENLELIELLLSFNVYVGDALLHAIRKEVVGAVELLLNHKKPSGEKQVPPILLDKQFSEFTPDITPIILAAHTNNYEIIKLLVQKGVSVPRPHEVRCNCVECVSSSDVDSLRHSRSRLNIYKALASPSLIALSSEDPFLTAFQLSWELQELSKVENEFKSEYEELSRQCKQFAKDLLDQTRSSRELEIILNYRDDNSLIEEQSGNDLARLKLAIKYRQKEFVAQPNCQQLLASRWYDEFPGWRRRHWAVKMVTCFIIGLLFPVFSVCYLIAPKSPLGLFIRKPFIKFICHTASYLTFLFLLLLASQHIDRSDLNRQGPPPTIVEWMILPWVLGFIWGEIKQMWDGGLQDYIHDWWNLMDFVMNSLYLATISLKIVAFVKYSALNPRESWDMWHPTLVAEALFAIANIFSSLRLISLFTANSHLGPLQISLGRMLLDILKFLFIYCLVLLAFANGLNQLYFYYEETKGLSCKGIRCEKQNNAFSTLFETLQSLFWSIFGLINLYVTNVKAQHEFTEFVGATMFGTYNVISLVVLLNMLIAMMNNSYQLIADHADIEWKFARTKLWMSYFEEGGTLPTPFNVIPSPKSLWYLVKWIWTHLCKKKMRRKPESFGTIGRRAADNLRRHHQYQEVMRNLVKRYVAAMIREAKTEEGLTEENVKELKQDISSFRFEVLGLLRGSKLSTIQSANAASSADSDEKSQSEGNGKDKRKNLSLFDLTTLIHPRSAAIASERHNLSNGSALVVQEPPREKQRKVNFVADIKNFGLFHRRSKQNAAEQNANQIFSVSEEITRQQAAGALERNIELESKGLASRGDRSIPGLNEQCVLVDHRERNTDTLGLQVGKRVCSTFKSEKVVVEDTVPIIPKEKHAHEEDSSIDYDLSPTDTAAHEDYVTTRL

[11] = target: Large T antigen (Simian virus 40, UniProt P03070); format: functional, Betapolyomavirus macacae;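 further: Confirmatory-stage PubChem screen for compounds that inhibit SV40 T antigen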
[12] = target: Fatty acid synthase (Homo sapiens, UniProt P49327); test: inhibition of human FAS-TE enzyme activity – biochemical, kinetic fluorescence intensity, dose response (AID 624326); format: functional;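 further: rate of fluorescence rise from hydrolysis of a fluorogenic O-methyl fluorescein ester substrate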
[13] = target: DNA dC->dU-editing enzyme APOBEC-3G (Homo sapiens, UniProt Q9HC16); test: Dose Response confirmation of small molecule APOBEC3G DNA Deaminase Inhibitors via a fluorescence-based single-stranded DNA deaminase assay. [Related pubchem assays (depositor defined):AID493012, AID493028]; format: functional
[14] = cells; format: functional
[15] = microbe, parasite or virus in culture; format: functional; conditions: Mycobacterium tuberculosis
[16] = THP-1 cell cytotoxicity, dose response, cytotoxicity control for non-replicating M. tuberculosis project (AID 489025); format: functional

Sequence of Glyceraldehyde-3-phosphate dehydrogenase (P04406 whole entry): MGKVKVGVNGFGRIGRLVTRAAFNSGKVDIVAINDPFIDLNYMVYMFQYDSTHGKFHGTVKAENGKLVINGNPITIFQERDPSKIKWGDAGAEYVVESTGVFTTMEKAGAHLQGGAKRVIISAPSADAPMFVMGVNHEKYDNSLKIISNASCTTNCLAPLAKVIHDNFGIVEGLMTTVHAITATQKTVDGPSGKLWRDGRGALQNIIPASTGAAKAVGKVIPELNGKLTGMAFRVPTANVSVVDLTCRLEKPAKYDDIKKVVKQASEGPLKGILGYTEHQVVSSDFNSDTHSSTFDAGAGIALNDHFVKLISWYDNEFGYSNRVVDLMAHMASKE
Sequence of DNA dC->dU-editing enzyme APOBEC-3G (Q9HC16 whole entry): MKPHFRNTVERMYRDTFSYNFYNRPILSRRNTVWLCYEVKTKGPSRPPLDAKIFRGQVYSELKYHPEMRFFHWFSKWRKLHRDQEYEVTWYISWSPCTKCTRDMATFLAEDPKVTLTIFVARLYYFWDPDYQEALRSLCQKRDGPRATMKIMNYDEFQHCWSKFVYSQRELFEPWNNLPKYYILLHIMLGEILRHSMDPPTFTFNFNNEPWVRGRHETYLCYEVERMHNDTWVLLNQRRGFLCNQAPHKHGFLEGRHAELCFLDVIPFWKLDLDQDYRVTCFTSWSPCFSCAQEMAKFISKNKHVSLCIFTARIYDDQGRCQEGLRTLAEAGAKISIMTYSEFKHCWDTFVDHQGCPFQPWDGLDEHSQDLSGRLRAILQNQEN
Sequence of Fatty acid synthase (P49327 whole entry): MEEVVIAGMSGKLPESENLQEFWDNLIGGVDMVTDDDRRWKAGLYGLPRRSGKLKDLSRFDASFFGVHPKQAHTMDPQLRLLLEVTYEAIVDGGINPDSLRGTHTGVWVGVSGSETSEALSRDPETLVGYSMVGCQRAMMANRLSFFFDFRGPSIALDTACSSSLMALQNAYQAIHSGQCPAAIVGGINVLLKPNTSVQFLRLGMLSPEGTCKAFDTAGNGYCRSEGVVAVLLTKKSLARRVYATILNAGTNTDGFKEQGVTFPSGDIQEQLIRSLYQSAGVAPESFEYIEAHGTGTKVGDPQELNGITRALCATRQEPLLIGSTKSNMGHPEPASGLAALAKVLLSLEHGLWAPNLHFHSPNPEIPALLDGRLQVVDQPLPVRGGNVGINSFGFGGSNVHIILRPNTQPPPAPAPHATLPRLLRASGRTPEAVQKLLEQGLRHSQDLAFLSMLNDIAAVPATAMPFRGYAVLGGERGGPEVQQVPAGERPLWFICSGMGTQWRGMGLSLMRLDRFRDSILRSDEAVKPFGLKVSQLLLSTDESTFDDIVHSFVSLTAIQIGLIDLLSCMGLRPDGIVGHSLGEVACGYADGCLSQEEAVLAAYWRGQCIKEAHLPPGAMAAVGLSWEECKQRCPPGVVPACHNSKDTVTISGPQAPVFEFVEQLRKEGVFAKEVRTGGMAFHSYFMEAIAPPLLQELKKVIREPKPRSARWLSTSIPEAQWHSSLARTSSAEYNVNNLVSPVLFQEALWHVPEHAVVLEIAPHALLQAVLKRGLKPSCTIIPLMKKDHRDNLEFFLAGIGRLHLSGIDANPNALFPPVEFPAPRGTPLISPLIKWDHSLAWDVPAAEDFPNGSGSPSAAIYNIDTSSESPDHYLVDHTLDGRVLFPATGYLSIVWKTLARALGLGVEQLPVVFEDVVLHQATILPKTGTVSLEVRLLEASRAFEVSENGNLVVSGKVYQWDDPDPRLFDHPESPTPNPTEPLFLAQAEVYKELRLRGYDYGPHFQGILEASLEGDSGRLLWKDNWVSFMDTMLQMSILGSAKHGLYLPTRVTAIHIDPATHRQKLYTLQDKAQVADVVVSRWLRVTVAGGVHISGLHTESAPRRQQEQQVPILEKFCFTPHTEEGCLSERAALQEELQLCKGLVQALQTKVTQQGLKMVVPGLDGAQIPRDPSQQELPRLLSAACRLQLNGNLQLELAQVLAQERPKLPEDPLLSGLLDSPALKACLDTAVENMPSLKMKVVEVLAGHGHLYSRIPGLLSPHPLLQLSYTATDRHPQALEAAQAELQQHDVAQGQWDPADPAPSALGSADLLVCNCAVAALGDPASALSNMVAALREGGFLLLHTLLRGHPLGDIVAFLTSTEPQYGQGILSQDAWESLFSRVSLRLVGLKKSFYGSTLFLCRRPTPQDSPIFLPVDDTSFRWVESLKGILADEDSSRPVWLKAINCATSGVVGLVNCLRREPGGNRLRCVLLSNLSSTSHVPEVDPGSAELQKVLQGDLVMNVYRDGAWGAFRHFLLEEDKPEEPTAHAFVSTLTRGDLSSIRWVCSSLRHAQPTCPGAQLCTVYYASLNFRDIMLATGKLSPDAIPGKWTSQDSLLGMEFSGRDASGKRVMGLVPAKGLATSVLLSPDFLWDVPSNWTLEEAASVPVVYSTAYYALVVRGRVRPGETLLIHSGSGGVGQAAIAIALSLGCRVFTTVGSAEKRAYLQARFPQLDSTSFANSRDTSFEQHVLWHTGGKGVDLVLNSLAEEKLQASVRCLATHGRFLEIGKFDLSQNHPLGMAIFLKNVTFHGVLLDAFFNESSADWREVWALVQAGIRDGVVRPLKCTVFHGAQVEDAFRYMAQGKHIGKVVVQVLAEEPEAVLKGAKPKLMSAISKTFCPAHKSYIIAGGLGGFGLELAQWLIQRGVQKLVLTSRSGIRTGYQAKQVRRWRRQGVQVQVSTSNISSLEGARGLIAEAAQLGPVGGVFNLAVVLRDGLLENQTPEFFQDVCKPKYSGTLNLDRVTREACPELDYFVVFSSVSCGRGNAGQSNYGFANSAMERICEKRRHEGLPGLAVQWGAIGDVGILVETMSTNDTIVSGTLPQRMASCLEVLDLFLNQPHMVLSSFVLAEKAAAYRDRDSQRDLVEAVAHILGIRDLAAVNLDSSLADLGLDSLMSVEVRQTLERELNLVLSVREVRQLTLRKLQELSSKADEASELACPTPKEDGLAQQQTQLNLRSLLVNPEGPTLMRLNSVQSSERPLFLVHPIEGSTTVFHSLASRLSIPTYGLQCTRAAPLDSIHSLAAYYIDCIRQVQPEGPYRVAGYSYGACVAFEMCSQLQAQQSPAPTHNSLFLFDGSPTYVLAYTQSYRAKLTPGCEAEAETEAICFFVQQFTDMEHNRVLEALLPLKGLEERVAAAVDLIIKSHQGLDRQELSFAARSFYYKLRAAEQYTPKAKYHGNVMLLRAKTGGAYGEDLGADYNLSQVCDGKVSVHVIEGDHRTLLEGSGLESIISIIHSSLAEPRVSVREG
Sequence of Large T antigen (P03070 whole entry): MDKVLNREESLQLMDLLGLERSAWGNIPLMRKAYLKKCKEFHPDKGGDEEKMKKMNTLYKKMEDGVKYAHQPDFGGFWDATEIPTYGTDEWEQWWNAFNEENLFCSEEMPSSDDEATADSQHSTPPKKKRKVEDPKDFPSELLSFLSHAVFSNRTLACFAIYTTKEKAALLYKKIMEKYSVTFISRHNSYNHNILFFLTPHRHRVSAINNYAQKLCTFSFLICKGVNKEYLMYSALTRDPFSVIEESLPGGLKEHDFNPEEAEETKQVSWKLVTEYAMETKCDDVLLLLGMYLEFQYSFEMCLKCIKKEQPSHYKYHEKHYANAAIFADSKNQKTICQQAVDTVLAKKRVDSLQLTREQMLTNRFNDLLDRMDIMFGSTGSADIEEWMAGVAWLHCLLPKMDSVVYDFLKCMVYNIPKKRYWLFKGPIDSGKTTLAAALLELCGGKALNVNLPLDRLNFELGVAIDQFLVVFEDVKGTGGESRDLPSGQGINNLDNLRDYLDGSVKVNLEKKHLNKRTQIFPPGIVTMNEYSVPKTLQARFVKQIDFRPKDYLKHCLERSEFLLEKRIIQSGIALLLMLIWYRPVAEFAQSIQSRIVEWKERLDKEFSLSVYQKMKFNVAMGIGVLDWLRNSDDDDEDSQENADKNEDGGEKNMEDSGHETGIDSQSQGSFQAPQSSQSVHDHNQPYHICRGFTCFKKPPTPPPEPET

## c1ccc(-c2cc(-c3nn4c(-c5ccco5)nnc4s3)c3ccccc3n2)cc1
[1]
  IC50: 16.6 µM (active)

## CC(=O)NC(=S)NNC(=O)COc1ccc(Br)cc1
[2]
  IC50: 2.57 µM (active)

## O=C(NC1CCCC1)C(c1ccc(F)cc1)N(Cc1ccccc1Cl)C(=O)CCl (stereo not given)
[3]
  EC50: 215 nM (active)
[4]
  EC50: 8.7 µM (active)
[5]
  EC50: 5.5 µM (active)
[6]
  EC50: 14.8 µM (active)
[7]
  EC50: > 150 µM (inconclusive)
[8]
  AC50: > 380 µM (inactive)

## O=C(O)c1cc(NS(=O)(=O)c2cccc3cccnc23)ccc1O
[9]
  IC50: > 100 µM (not active)

## Cc1ccc(C2N(c3ccc(Cl)c(Cl)c3)C(=O)C3CCCN32)o1 (stereo not given)
[10]
  EC50: 4220 nM (active)

## O=C(NCc1cccs1)C1CCN(S(=O)(=O)c2ccccc2F)CC1
[2]
  IC50: 51 µM (active)

## Cc1ccc(N2C(=O)NC(=O)/C(=C/c3ccc(-c4ccc(C(=O)O)c(Cl)c4)o3)C2=O)cc1
[11]
  IC50: 32.7 µM (active)
[1]
  IC50: 5.49 µM (active)

## CCOC(=O)C1(CCc2ccccc2)CCN(Cc2c(O)cccc2OC)CC1
[10]
  EC50: 299 nM (active)

## CCCC(C)c1nnc(NC(=O)c2cc(C(=O)OC)cc([N+](=O)[O-])c2)s1 (stereo not given)
[12]
  IC50: 7.04 µM (active)
[13]
  IC50: 19.6 µM (active)

## Oc1nc(-c2ccncc2)nc2ccccc12
[13]
  IC50: 44.8 µM (active)

## Cc1noc(NS(=O)(=O)c2ccc(NC(=O)CSc3nnc(-c4ccccc4)n3C3CCCCC3)cc2)c1C
[2]
  IC50: 75.9 µM (active)

## CC(C)(C)NC(=O)C(=O)NNC(=O)COc1ccc(Br)cc1
[14]
  IC50: 17.9 µM (active)
[2]
  IC50: 619 µM (active)

## Cc1csc(NC(=O)CSCC(=O)O)c1-c1nc2ccccc2s1
[2]
  IC50: 7.09 µM (active)

## C=C1CCC[C@]2(C)C[C@H]3OC(=O)C(CNC(C)CCCC(C)C)[C@H]3CC12 (stereo not given in full)
[14]
  IC50: 30.6 µM (active)
[15]
  CC50: 27 µM (active)
[16]
  CC50: 22.1 µM (active)

## S=C(NCCc1c[nH]cn1)NC1CCCC1
[10]
  EC50: 84 nM (active)

## COc1ccc(-c2nc(CN3CCC(C(=O)NC4CCCC4)CC3)c(C)o2)cc1OC
[10]
  EC50: 473 nM (active)

## c1ccc2oc(N3CCNCC3)nc2c1
[10]
  EC50: 668 nM (active)

## O=C(N/N=C/c1ccc(OCCCF)cc1)c1ccc(C(F)(F)F)cc1
[1]
  IC50: 13.2 µM (active)

## O=C(NCCCO)c1cc(-c2ccc(Cl)cc2Cl)n[nH]1
[9]
  IC50: > 10 µM (inconclusive)

## CN(C)/C=C/C=C1C(=O)CCCC1=O
[1]
  IC50: 7.28 µM (active)
